# Test results: ChEMBL document CHEMBL1201862, “PubChem BioAssay data set” (2004)
# Activity calls are given as the source filed them. Rule as the data show it, for most assays here: actives have a measured EC50 and inactives only a lower limit.
# Assays:
# [1] = Luminescence Cell-Based Dose Response HTS to Identify Inhibitors of 5'UTR Stem-Loop Driven Prion Protein mRNA Translation in H4 Neuroglioblastoma Cells. [Related pubchem assays: 1827 (Project Summary), 1813 (Primary HTS)]; assay type: functional
# [2] = inhibitors of firefly luciferase expression or activity, dose response, H4 neuroglioma cells, luminescence (AID 1990); assay type: functional, cell-based
# [3] = inhibitors of SNCA 5'UTR-driven reporter translation, confirmation, H4 neuroglioma cells, luminescence (AID 1988); assay type: functional, cell-based
# [4] = tested on: Streptococcus sp. 'group A'; assay: growth inhibition of control SK(-) GAS strain, dose response, counter-screen for streptokinase expression inhibitor project, luminescence, kanamycin, BacTiterGlo, confirmation (AID 1900); assay type: functional, organism-based
# [5] = molecular target: T1, Streptokinase A (Streptococcus pyogenes serotype M1, UniProt P10520); assay: S. pyogenes streptokinase expression inhibitors, potency, dose response, plasminogen activation absorbance, OD405 (AID 1914); assay type: functional, Streptococcus pyogenes M1 GAS;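 also: secreted streptokinase activity via plasminogen activation per viability signal from cell pellet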
# T1 sequence (P10520 whole entry): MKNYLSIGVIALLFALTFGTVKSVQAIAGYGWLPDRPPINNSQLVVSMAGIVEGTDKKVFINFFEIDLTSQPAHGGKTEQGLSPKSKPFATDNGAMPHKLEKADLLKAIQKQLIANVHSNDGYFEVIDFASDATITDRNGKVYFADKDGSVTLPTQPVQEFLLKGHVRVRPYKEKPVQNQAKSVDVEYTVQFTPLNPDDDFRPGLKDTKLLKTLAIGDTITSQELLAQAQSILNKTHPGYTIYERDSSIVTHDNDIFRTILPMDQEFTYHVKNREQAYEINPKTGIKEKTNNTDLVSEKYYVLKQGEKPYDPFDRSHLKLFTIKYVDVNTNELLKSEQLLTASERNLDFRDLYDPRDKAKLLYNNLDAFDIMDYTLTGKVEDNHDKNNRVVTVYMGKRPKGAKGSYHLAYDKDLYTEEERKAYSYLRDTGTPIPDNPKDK
# [6] = tested on: Streptococcus; assay: Group A Streptococcus viability loss, dose response, counter-screen for streptokinase expression inhibitor project, luminescence, BacTiterGlo (AID 1915); assay type: functional, organism-based;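 also: potency for reduction of bacterial viability or growth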
# [7] = tested on: H9c2; assay: cells; assay type: functional, cell-based; details: Rattus norvegicus, H9c2, Myocardium;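 also: confirmatory concentration-response retest of ultra-high-throughput screening hits for modulation of myocardial damage; cell death induced by hydrogen peroxide oxidative stress; compound pretreatment for 60 min then peroxide exposure for 2 h; potency is for protecting the cells against peroxide damage rather than for killing them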
# [8] = molecular target: T2, Sentrin-specific protease 7 (Homo sapiens, UniProt Q9BQF6); assay type: functional;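 also: Luminescence-based dose-response confirmation of ultra-high-throughput screening hits, measuring inhibition of SENP7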
# T2 sequence (Q9BQF6 whole entry): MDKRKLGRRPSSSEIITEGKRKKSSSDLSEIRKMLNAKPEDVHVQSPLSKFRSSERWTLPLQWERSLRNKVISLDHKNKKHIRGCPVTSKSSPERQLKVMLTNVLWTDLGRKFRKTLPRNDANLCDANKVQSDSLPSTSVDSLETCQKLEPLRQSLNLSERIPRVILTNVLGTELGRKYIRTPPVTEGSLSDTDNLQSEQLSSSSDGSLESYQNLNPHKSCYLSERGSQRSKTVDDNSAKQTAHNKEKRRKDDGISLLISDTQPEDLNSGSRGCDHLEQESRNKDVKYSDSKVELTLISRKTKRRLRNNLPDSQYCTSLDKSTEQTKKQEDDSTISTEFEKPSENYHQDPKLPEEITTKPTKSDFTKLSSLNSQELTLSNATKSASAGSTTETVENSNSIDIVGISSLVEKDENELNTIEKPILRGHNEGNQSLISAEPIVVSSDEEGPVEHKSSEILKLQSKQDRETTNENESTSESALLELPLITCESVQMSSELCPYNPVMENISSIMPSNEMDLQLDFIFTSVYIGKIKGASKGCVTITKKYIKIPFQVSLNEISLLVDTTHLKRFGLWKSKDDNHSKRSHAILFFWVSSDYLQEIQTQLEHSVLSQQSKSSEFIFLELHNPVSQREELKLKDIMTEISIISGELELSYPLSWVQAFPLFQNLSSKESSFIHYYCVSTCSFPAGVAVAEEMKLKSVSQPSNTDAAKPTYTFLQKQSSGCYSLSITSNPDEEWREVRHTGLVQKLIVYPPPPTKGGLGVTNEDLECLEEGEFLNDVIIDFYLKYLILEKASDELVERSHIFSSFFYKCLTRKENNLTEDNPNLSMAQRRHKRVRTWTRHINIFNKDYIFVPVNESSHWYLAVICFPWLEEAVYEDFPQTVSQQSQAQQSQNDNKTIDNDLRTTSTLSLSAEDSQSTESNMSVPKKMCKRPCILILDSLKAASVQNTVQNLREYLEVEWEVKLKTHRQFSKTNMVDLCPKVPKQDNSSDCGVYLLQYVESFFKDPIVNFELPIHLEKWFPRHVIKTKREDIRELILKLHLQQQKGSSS
# [9] = molecular target: T3, Sentrin-specific protease 6 (Homo sapiens, UniProt Q9GZR1); assay type: functional;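 also: Luminescence-based dose-response confirmatory assay of SENP6 inhibition, following up an ultra-high-throughput screen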
# T3 sequence (Q9GZR1 whole entry): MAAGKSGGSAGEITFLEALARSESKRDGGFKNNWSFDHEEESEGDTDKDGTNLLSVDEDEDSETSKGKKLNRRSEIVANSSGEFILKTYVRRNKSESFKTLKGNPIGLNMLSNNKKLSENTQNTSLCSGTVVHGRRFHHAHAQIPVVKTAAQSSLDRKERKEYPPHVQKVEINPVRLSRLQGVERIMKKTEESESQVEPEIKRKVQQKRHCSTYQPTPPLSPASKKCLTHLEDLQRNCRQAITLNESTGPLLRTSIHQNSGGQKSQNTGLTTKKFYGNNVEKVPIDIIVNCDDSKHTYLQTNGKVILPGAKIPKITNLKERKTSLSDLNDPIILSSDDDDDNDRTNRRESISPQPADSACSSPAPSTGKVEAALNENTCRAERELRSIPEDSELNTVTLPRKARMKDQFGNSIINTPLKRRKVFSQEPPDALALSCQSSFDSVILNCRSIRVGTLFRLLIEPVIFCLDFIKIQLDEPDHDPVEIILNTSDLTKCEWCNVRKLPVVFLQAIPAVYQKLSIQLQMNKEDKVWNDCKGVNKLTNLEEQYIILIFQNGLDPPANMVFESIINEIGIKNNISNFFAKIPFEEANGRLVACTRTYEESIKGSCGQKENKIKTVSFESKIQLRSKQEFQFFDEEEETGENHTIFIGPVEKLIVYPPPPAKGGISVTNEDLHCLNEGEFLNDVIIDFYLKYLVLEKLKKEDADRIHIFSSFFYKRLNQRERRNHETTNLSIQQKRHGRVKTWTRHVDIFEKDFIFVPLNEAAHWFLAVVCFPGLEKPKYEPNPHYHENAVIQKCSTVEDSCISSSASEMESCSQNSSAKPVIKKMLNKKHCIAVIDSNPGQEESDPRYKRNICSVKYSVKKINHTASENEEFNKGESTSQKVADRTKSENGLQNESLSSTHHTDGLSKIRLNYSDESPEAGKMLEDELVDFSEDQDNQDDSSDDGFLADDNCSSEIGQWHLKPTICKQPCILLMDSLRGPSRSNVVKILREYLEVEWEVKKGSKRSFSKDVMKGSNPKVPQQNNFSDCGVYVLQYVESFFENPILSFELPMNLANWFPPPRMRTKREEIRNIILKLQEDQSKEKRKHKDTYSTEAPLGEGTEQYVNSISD
# [10] = molecular target: T4, Sentrin-specific protease 8 (Homo sapiens, UniProt Q96LD8); assay type: functional;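 also: luminescence read-out of SENP8 inhibition, dose-response confirmation following an ultra-high-throughput screen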
# T4 sequence (Q96LD8 whole entry): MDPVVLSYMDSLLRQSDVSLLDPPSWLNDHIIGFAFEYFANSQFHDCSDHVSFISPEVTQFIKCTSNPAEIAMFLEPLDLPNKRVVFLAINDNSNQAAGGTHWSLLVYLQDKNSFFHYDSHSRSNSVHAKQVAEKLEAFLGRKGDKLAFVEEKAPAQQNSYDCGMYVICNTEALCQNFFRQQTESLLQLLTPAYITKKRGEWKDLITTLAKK
# [11] = molecular target: T5, Microphthalmia-associated transcription factor (Homo sapiens, UniProt O75030); assay: TRPM1 promoter luciferase signal decrease, dose response, MITF inhibitor project, cell-based, SK-MEL-5, cherry-picked, set 3 (AID 493073); assay type: functional
# T5 sequence (O75030 whole entry): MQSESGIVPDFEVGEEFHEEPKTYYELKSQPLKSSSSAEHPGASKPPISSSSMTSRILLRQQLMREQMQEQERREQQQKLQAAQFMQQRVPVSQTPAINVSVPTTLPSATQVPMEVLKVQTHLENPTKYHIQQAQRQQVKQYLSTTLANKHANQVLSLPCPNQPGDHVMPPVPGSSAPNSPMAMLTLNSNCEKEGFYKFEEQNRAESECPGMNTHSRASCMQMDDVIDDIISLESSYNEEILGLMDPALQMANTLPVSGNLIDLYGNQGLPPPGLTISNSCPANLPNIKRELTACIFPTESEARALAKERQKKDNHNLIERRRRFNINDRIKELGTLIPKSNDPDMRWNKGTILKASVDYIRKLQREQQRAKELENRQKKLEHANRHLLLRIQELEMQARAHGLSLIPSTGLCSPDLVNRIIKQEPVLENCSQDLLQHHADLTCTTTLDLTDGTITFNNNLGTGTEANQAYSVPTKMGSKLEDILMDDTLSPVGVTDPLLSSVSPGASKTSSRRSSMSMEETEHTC
# [12] = molecular target: T6, Corticotropin-releasing factor receptor 2/Corticotropin-releasing factor-binding protein (Homo sapiens, UniProt P24387+Q13324); assay: activators of CRF receptor 2 with binding protein – uHTS hits, confirmation (AID 602473); assay type: functional; details: read-out: EC50_Mean
# T6 sequence (Q13324 whole entry): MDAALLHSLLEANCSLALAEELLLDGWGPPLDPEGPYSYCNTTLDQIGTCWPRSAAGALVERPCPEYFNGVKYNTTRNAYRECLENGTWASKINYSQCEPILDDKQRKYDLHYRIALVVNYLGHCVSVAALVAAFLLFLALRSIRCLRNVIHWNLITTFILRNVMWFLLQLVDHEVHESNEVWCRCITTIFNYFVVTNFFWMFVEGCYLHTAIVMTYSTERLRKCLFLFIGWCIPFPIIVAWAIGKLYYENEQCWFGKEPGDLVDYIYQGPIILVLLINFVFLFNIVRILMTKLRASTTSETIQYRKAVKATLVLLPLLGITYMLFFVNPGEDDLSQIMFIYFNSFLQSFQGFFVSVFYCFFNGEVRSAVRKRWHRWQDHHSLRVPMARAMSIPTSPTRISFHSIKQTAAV
# T6 sequence (P24387 whole entry): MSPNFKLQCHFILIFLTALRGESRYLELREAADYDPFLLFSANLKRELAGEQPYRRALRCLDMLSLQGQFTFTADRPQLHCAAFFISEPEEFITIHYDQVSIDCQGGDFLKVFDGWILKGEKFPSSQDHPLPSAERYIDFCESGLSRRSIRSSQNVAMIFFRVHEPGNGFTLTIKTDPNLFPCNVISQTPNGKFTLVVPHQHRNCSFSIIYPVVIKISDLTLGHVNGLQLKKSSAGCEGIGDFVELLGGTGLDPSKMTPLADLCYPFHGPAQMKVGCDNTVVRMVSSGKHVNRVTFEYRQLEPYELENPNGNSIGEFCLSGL
Compound,EC50 [1],EC50 [2],EC50 [3],IC50 [7],also measured
CC(NC(=O)COC(=O)c1ccc2c(c1)S(=O)(=O)N=C1CCCCCN12)C12CC3CC(CC(C3)C1)C2 (stereo not drawn),> 120 µM (not active),> 120 µM (not active),15.5 µM (active),,
Cc1cc(C)c(C(=O)CC(=O)c2ccccc2Cl)c(O)c1,,,,11.7 µM (active),EC50 [4]: 7.46 µM (active); EC50 [5]: > 150 µM (not active); EC50 [6]: 23.5 µM (active)
O=C(CCc1nnc(-c2ccc(-c3ccccc3)cc2)o1)NCCc1ccccn1,21.4 µM (active),,,,
Cn1c(/C(C#N)=C/c2ccc(O)cc2)nc2ccccc21,,,,,IC50 [8]: 12 µM (active); IC50 [9]: 28.3 µM (active); IC50 [10]: 45 µM (active)
Cc1onc(-c2ccccc2Cl)c1C(=O)NC(=S)Nc1ccc(C(C)(C)C)cc1,> 120 µM (not active),> 120 µM (not active),107 µM (active),,
Cc1c(CCC(=O)N2CCC[C@H]2C(=O)O)c(=O)oc2c(C)c3oc4c(c3cc12)CCCC4,16.2 µM (active),15.9 µM (active),14 µM (active),,
COc1cccc(-n2nc3c(S)nnc(C)c3c2C)c1,> 120 µM (not active),16.2 µM (active),> 120 µM (not active),,
COc1ccccc1N1C(=O)N(C(C)=O)C2C1Nc1ccccc1N2C (stereo not drawn),,,,,AC50 [11]: 10.5 µM (active)
O=C(Nc1ccc(CN2CCOCC2)cc1)c1ccc(-c2cccc([N+](=O)[O-])c2)o1,,,,> 79 µM (inactive),
Cc1sc2nc(COC(=O)Cc3ccccc3)nc(O)c2c1C,,,,23.4 µM (active),
COc1cc2c(cc1OC)C(SC)=NC1(CCCC1)C2,,,,,AC50 [11]: 9.44 µM (active)
Cc1ccc(CNc2cc(-c3nn4c(C)nnc4s3)ccc2C)s1,56.1 µM (active),9.69 µM (active),22.5 µM (active),,
COc1ccccc1NS(=O)(=O)c1cc(NC(=O)CCc2nc(O)c3ccccc3n2)ccc1C,,,,> 79 µM (inactive),
COc1ccccc1CN(C(=O)CNC(=O)c1ccco1)C(C(=O)NCC1CCCO1)c1ccccc1 (stereo not drawn),,,,> 79 µM (inactive),
Nc1ccc(-c2cc3ccccc3c(=O)o2)cc1,,,,,AC50 [11]: 0.293 µM (active)
CCOC(=O)C1=C(NC(=O)c2oc3ccccc3c2COC)Nc2ccccc2N=C1C,,,,> 79 µM (inactive),
CCCCN1CC(COCc2ccccc2)Oc2cccc(OCCN3C(=O)[C@@H]4[C@H](C3=O)C3C=C[C@H]4C3)c2S1(=O)=O (stereo partly drawn),,,,> 79 µM (inactive),EC50 [12]: 5.15 µM (active)
O=C(N/N=C/c1ccccn1)c1cc(-c2ccc(Cl)s2)n[nH]1,,,,> 79 µM (inactive),
COc1cc(C(=O)N/N=C/c2ccc(OC(=O)c3ccccc3Cl)cc2)ccc1O,,,,> 79 µM (inactive),
COc1cccc(/C=N/NC(=O)N/N=C/c2cccc(OC)c2O)c1O,> 120 µM (not active),15.5 µM (active),9.36 µM (active),,
